Test results published in article PMC7411887, “New Paracyclophanylthiazoles with Anti-Leukemia Activity: Design, Synthesis, Molecular Docking, and Mechanistic Studies” (Molecules, 2020).

How the values were obtained:
leukemia RPMI-8226 = test: MTT antiproliferative assay; settings: Homo sapiens, RPMI-8226, read-out: Cytotoxicity IC50 RPMI-8226, MTT; mean ± SD
EKVX = test: NCI single-dose screen (SRB); format: cell-based; settings: Homo sapiens; Non-Small-Cell Lung Cancer EKVX; 10^−5 M; read-out: Growth inhibition percentage
Experimental: (§1) The methodology of the NCI anticancer screening was described in detail elsewhere (http://www.dtp.nci.nih.gov). […] Tested compounds were added to the culture at a single concentration (10^−5 M) and the cultures were incubated for 48 h. End-point determinations were made with a protein binding dye, SRB. Results for each tested compound were reported as the percentage growth of the treated cells when compared to the untreated control cells. The percentage growth was evaluated spectrophotometrically versus controls not treated with test agents. All experiments were repeated three times (Table 1).
(§2) Briefly, the protocol was performed on 60 human tumor cell lines derived from different nine neoplastic diseases. […] If the results obtained met selection criteria, then the compound was tested again on all 60 cell lines in 5× 10-fold dilutions with the top dose being 10^−4 M or 150 μg/mL. Detailed methods are described in the Supplementary Materials related to this article.
(§3) on their site (http://www.dtp.nci.nih.gov). But briefly, the protocol performed at sixty human
(§4) National Cancer Institute, Bethesda, USA. If the results obtained meet selection criteria, then the
(§5) 10-4 molar or 150 μg/mL. […]

OVCAR-5 = test: NCI single-dose screen (SRB); format: cell-based; settings: Homo sapiens; Ovarian Cancer OVCAR-5; 10^−5 M; read-out: Growth inhibition percentage
Experimental: as §1, §2, §3, §4, §5

SF-539 = test: NCI single-dose screen (SRB); format: cell-based; settings: Homo sapiens; CNS Cancer SF-539; 10^−5 M; read-out: Growth inhibition percentage
Experimental: as §1, §2, §3, §4, §5

SR = test: NCI single-dose screen (SRB); format: cell-based; settings: Homo sapiens; Leukemia SR; 10^−5 M; read-out: Growth inhibition percentage
Experimental: as §1, §2, §3, §4, §5

DU-145 = test: NCI single-dose screen (SRB); format: cell-based; settings: Homo sapiens; Prostate Cancer DU-145; 10^−5 M; read-out: Growth inhibition percentage
Experimental: as §1, §2, §3, §4, §5

HOP-92 = test: NCI single-dose screen (SRB); format: cell-based; settings: Homo sapiens; Non-Small-Cell Lung Cancer HOP-92; 10^−5 M; read-out: Growth inhibition percentage
Experimental: as §1, §2, §3, §4, §5

A549/ATCC = test: NCI single-dose screen (SRB); format: cell-based; settings: Homo sapiens; Non-Small-Cell Lung Cancer A549/ATCC; 10^−5 M; read-out: Growth inhibition percentage
Experimental: as §1, §2, §3, §4, §5

HCC-2998 = test: NCI single-dose screen (SRB); format: cell-based; settings: Homo sapiens; Colon Cancer HCC-2998; 10^−5 M; read-out: Growth inhibition percentage
Experimental: as §1, §2, §3, §4, §5

K-562 = test: NCI single-dose screen (SRB); format: cell-based; settings: Homo sapiens, K562; Leukemia K-562; 10^−5 M; read-out: Growth inhibition percentage
Experimental: as §1, §2, §3, §4, §5

SN12C = test: NCI single-dose screen (SRB); format: cell-based; settings: Homo sapiens; Renal Cancer SN12C; 10^−5 M; read-out: Growth inhibition percentage
Experimental: as §1, §2, §3, §4, §5

OVCAR-8 = test: NCI single-dose screen (SRB); format: cell-based; settings: Homo sapiens; Ovarian Cancer OVCAR-8; 10^−5 M; read-out: Growth inhibition percentage
Experimental: as §1, §2, §3, §4, §5

UACC-62 = test: NCI single-dose screen (SRB); format: cell-based; settings: Homo sapiens; Melanoma UACC-62; 10^−5 M; read-out: Growth inhibition percentage
Experimental: as §1, §2, §3, §4, §5

M14 = test: NCI single-dose screen (SRB); format: cell-based; settings: Homo sapiens; Melanoma M14; 10^−5 M; read-out: Growth inhibition percentage
Experimental: as §1, §2, §3, §4, §5

UO-31 = test: NCI single-dose screen (SRB); format: cell-based; settings: Homo sapiens; Renal Cancer UO-31; 10^−5 M; read-out: Growth inhibition percentage
Experimental: as §1, §2, §3, §4, §5

MALME-3M = test: NCI single-dose screen (SRB); format: cell-based; settings: Homo sapiens; Melanoma MALME-3M; 10^−5 M; read-out: Growth inhibition percentage
Experimental: as §1, §2, §3, §4, §5

U251 = test: NCI single-dose screen (SRB); format: cell-based; settings: Homo sapiens, U-251; CNS Cancer U251; 10^−5 M; read-out: Growth inhibition percentage
Experimental: as §1, §2, §3, §4, §5

IGROV1 = test: NCI single-dose screen (SRB); format: cell-based; settings: Homo sapiens, IGROV-1; Ovarian Cancer IGROV1; 10^−5 M; read-out: Growth inhibition percentage
Experimental: as §1, §2, §3, §4, §5

HCT-15 = test: NCI single-dose screen (SRB); format: cell-based; settings: Homo sapiens; Colon Cancer HCT-15; 10^−5 M; read-out: Growth inhibition percentage
Experimental: as §1, §2, §3, §4, §5

NCI-H322M = test: NCI single-dose screen (SRB); format: cell-based; settings: Homo sapiens; Non-Small-Cell Lung Cancer NCI-H322M; 10^−5 M; read-out: Growth inhibition percentage
Experimental: as §1, §2, §3, §4, §5

NCI-H226 = test: NCI single-dose screen (SRB); format: cell-based; settings: Homo sapiens; Non-Small-Cell Lung Cancer NCI-H226; 10^−5 M; read-out: Growth inhibition percentage
Experimental: as §1, §2, §3, §4, §5

HOP-62 = test: NCI single-dose screen (SRB); format: cell-based; settings: Homo sapiens; Non-Small-Cell Lung Cancer HOP-62; 10^−5 M; read-out: Growth inhibition percentage
Experimental: as §1, §2, §3, §4, §5

SNB-19 = test: NCI single-dose screen (SRB); format: cell-based; settings: Homo sapiens; CNS Cancer SNB-19; 10^−5 M; read-out: Growth inhibition percentage
Experimental: as §1, §2, §3, §4, §5

SF-295 = test: NCI single-dose screen (SRB); format: cell-based; settings: Homo sapiens; CNS Cancer SF-295; 10^−5 M; read-out: Growth inhibition percentage
Experimental: as §1, §2, §3, §4, §5

MDA-MB-435 = test: NCI single-dose screen (SRB); format: cell-based; settings: Homo sapiens; Melanoma MDA-MB-435; 10^−5 M; read-out: Growth inhibition percentage
Experimental: as §1, §2, §3, §4, §5

SK-MEL-5 = test: NCI single-dose screen (SRB); format: cell-based; settings: Homo sapiens; Melanoma SK-MEL-5; 10^−5 M; read-out: Growth inhibition percentage
Experimental: as §1, §2, §3, §4, §5

UACC-257 = test: NCI single-dose screen (SRB); format: cell-based; settings: Homo sapiens; Melanoma UACC-257; 10^−5 M; read-out: Growth inhibition percentage
Experimental: as §1, §2, §3, §4, §5

OVCAR-4 = test: NCI single-dose screen (SRB); format: cell-based; settings: Homo sapiens; Ovarian Cancer OVCAR-4; 10^−5 M; read-out: Growth inhibition percentage
Experimental: as §1, §2, §3, §4, §5

MOLT-4 = test: NCI single-dose screen (SRB); format: cell-based; settings: Homo sapiens; Leukemia MOLT-4; 10^−5 M; read-out: Growth inhibition percentage
Experimental: as §1, §2, §3, §4, §5

RPMI-8226 = test: NCI single-dose screen (SRB); format: cell-based; settings: Homo sapiens; Leukemia RPMI-8226; 10^−5 M; read-out: Growth inhibition percentage
Experimental: as §1, §2, §3, §4, §5

Row | SMILES | IC50 (leukemia RPMI-8226) [µM] | inhibition at 10 µM (EKVX) [%] | inhibition at 10 µM (OVCAR-5) [%] | inhibition at 10 µM (SF-539) [%] | inhibition at 10 µM (SR) [%] | inhibition at 10 µM (DU-145) [%] | inhibition at 10 µM (HOP-92) [%] | inhibition at 10 µM (A549/ATCC) [%] | inhibition at 10 µM (HCC-2998) [%] | inhibition at 10 µM (K-562) [%] | inhibition at 10 µM (SN12C) [%] | inhibition at 10 µM (OVCAR-8) [%] | inhibition at 10 µM (UACC-62) [%] | inhibition at 10 µM (M14) [%] | inhibition at 10 µM (UO-31) [%] | inhibition at 10 µM (MALME-3M) [%] | inhibition at 10 µM (U251) [%] | inhibition at 10 µM (IGROV1) [%] | inhibition at 10 µM (HCT-15) [%] | inhibition at 10 µM (NCI-H322M) [%] | further results
1 | CCN1C(=O)C(=CC(=O)OC)SC1=NNC(=O)c1cc2ccc1CCc1ccc(cc1)CC2 [Compound 3e] | 3.17 ± 0.0489 | 6.44 | 0 | 9.82 | 113 | 0 | 18.4 | 3 | 0 | 45.8 | 4.97 | 7.42 | 21.4 | 12.8 | 21 | 8.06 | 15.6 | 11.6 | 31.6 | 7.75 | inhibition at 10 µM (NCI-H226): 7.31%; inhibition at 10 µM (HOP-62): 0%; inhibition at 10 µM (SNB-19): 14.4%; inhibition at 10 µM (SF-295): 3.13%; inhibition at 10 µM (MDA-MB-435): 0.72%; inhibition at 10 µM (SK-MEL-5): 7.5%; inhibition at 10 µM (UACC-257): 7.26%; inhibition at 10 µM (OVCAR-4): 10%; inhibition at 10 µM (MOLT-4): 62.9%; inhibition at 10 µM (RPMI-8226): 114%
2 | COC(=O)C=C1SC(=NNC(=O)c2cc3ccc2CCc2ccc(cc2)CC3)N(Cc2ccccc2)C1=O [Compound 3b] | 4.62 ± 0.0459 | 22.3 | 34.6 | 56.7 | 115 | 16.8 | 24.5 | 22.9 | 20.5 | 81.1 | 38.8 | 28 | 48.1 | 36.6 | 55 | 11.6 | 45 | 57.7 | 72.2 | 6.7 | inhibition at 10 µM (NCI-H226): 35.2%; inhibition at 10 µM (HOP-62): 22.8%; inhibition at 10 µM (SNB-19): 43.1%; inhibition at 10 µM (SF-295): 10.6%; inhibition at 10 µM (MDA-MB-435): 8.44%; inhibition at 10 µM (SK-MEL-5): 17.7%; inhibition at 10 µM (UACC-257): 19%; inhibition at 10 µM (OVCAR-4): 55.4%; inhibition at 10 µM (MOLT-4): 98.9%; inhibition at 10 µM (RPMI-8226): 147%
3 | COC(=O)C=C1SC(=NNC(=O)c2cc3ccc2CCc2ccc(cc2)CC3)N(c2ccccc2)C1=O [Compound 3a] | 1.61 ± 0.0654 | 41 | 51.8 | 122 | 116 | 49.1 | 24.7 | 30.9 | 96.4 | 73 | 77.5 | 59.3 | 74.8 | 46.9 | 41.5 | 21.2 | 84.2 | 94 | 99.7 | 31.5 | inhibition at 10 µM (NCI-H226): 26.2%; inhibition at 10 µM (HOP-62): 97%; inhibition at 10 µM (SNB-19): 60.1%; inhibition at 10 µM (SF-295): 41%; inhibition at 10 µM (MDA-MB-435): 10.4%; inhibition at 10 µM (SK-MEL-5): 30.6%; inhibition at 10 µM (UACC-257): 30.8%; inhibition at 10 µM (OVCAR-4): 70.6%; inhibition at 10 µM (MOLT-4): 97%; inhibition at 10 µM (RPMI-8226): 121%
